Data set [1] deals with MTCC 737. Put plainly: PI uptake assay. The note with it: derivatives 100 µg/ml, Polymyxin B 10 μM, 1 h. In kind it is cell-based, Staphylococcus aureus. Here is the method:
(§1) MTCC 737 and MRSA 831 were grown, washed, and resuspended in 5 mM HEPES (pH 7.2), with the OD600 normalized to 0.5. […] Polymyxin B (10 μM), a membrane destabilizer, was used as a reference control. Drug-free and vehicle controls (cells treated with 0.5% DMSO) were included to analyze changes in fluorescence. After 1 h of treatment, cultures were centrifuged and stained with 5 µM PI dye for 15 min. Following staining, the cultures were washed twice to remove the extra dye, and fluorescence was recorded at 485 nm excitation and 525 nm emission wavelengths ([Zhou et al., 2020]).

In data set [2] the test system is MRSA 831. Put plainly: PI uptake assay. The class given is cell-based, methicillin-resistant S. aureus. The note with it: derivatives 100 µg/ml, Polymyxin B 10 μM, 1 h. Here is the method:
as §1

The test system of data set [3] is V. cholerae (MTCC 3906). Kind of data set: Agar well diffusion. The class given is cell-based, Vibrio cholerae. The note with it: for zone of inhibition at 50 µg/mL: Vibrio cholerae, MTCC3906. Background: In agar diffusion tests the substance spreads into inoculated agar from a disc or well.
The subject of data set [4] is V. cholerae (MTCC 3906). Put plainly: Broth microdilution MIC. In kind it is cell-based, Vibrio cholerae. The note with it: for MIC: Vibrio cholerae, MTCC3906, 18 h, read-out: Minimum inhibitory concentration.
Data set [5] has as its system M. luteus (MTCC 106). Kind of data set: Agar well diffusion. The note with it: for zone of inhibition at 50 µg/mL: Micrococcus luteus, MTCC106.
Data set [6] relates to B. subtilis (MTCC 441). Kind of data set: Agar well diffusion. The note with it: for zone of inhibition at 50 µg/mL: Bacillus subtilis, MTCC441.
Data set [7] relates to S. aureus (MTCC737). Kind of data set: Agar well diffusion. The note with it: for zone of inhibition at 50 µg/mL: Staphylococcus aureus, MTCC737.
Data set [8] concerns E. coli (MTCC739). Put plainly: Agar well diffusion. The note with it: for zone of inhibition at 50 µg/mL: Escherichia coli, MTCC739.
Data set [9] relates to MRSA 831 (MRSA). Put plainly: Agar well diffusion. The note with it: MRSA 831, 50 µg/ml, ND = Not detected; for zone of inhibition at 50 µg/mL: Staphylococcus aureus, MRSA.
Data set [10] concerns P. aeruginosa (MTCC1934). Kind of data set: Agar well diffusion. The note with it: for zone of inhibition at 50 µg/mL: Pseudomonas aeruginosa, MTCC1934.
Data set [11] relates to E. coli (MTCC739). Kind of data set: Broth microdilution MIC. The note with it: for MIC: Escherichia coli, MTCC739, 18 h, read-out: Minimum inhibitory concentration.
Data set [12] relates to P. aeruginosa (MTCC1934). Kind of data set: Broth microdilution MIC. The note with it: for MIC: Pseudomonas aeruginosa, MTCC1934, 18 h, read-out: Minimum inhibitory concentration.
Data set [13] concerns S. aureus (MTCC737). Put plainly: Broth microdilution MIC. The note with it: for MIC: Staphylococcus aureus, MTCC737, 18 h, read-out: Minimum inhibitory concentration. For orientation: In broth dilution the organism is exposed to a series of concentrations in liquid medium.
For data set [14], the system named is K. pneumoniae (MTCC 618). Put plainly: Broth microdilution MIC. The note with it: for MIC: Klebsiella pneumoniae, MTCC618, 18 h, read-out: Minimum inhibitory concentration.
Data set [15] concerns MRSA 831. Put plainly: Broth microdilution MIC. The note with it: 18 h; for MIC: Staphylococcus aureus, MRSA, read-out: Minimum inhibitory concentration.
The test system of data set [16] is K. pneumoniae (MTCC 618). Put plainly: Agar well diffusion. The note with it: 50 µg/ml, ND = Not detected.
A short description of data set [17]: Cytotoxicity (MTT assay). The class given is cell-based, murine. The note with it: mouse. Here is the method:
The murine fibroblast 3T3 L-1 cell line was procured from the National Centre for Cell Science (NCCS), Pune, India. The 3T3 L-1 cells were incubated at 37°C in an incubator maintained at 95% humidity and 5% CO2 in DMEM medium complemented with 10% fetal bovine serum (FBS) and 1% penicillin-streptomycin.
Synthesized derivatives were evaluated for cytotoxicity in a 3T3-L1 cell line using the MTT assay ([Ernawati et al., 2022]). 8000 cells/well were added in 96-well tissue culture flat-bottom microtiter plates for 24 h and then incubated with synthesized molecules (0-400 µg/ml) for 48 h at 37°C in a CO2 incubator. DMSO was used as solvent at a concentration of 0.1% to ensure that any observed effects were not attributable to the solvent itself, whereas 1 µg/ml doxorubicin was used in toxicity tests as a positive control. Subsequently, the media was replaced with MTT solution (100 µl) diluted in fresh media (0.5 mg/ml), and incubated for 4 h. After incubation, 100 µl of stop solution (50% DMF with 20% SDS) was added to dissolve the formazan crystals, and the plates were further incubated for 1 h. Absorbance was measured at 570 nm using BioTEK Synergy multi-plate reader ([Mosmann, 1983]; [Pratelli et al., 2023]). Percent cell viability was calculated using the following formula:
Cell viability (%)=Absorbance (Untreated - blank) - Absorbance (Test sample- blank)/Absorbance (Untreated - blank)×100
On the technique in general: Formazan colour is commonly taken as a measure of viable cells.

Data set [18] has as its system MRSA 831 persister cells. Kind of data set: Persister killing assay. The class given is cell-based, methicillin-resistant S. aureus. The note with it: MRSA persisters; 4-fold MIC. The procedure:
To evaluate the persister-killing activity of 2,2’-Bipy derivatives, MTCC 737 and MRSA 831 cells were grown overnight to the stationary phase at 37°C ([Kim et al., 2018b]). […]. The bacterial densities of persisters were recorded at OD600 at hourly intervals from 0 to 6 h.

Data set [19] relates to MTCC 737. Put plainly: Transmission electron microscopy. The note with it: S. aureus MTCC 737; 100 µg/ml, 12 h.
The subject of data set [20] is MRSA 831. Kind of data set: Transmission electron microscopy. The note with it: 100 µg/ml, 12 h.
Data set [21] has as its system MTCC 737. Put plainly: Biofilm inhibition assay (crystal violet). The note with it: S. aureus; at MIC or higher concentrations.
Experimental: After incubation, cells were washed with 1X PBS, and stained with 100 µl of Crystal Violet dye for 15 min, and rinsed again with 1X PBS.
The subject of data set [22] is MTCC 737. Put plainly: Biofilm imaging by confocal laser scanning microscopy (SYTO 9/PI). The note with it: derivatives 100 µg/ml, 24 h.
Text: Using SYTO 9 and PI dyes. […] Two independent experiments were done in triplicate.

Values after ≈ are worked out from the molar mass of the structure shown. Values joined by “and” are separate entries in the source; they are usually repeats but may differ in a detail not shown here. Equal values may be shown once. Read-outs that look alike come from different tables or passages of the source.

With Polymyxin B [reference compound], the “PI fluorescence (membrane integrity)” value in data set [1] and in data set [2] was “higher fluorescence” each time.

Usually zone of inhibition stands for the extent of the growth-free halo in a diffusion test. A high value points to a stronger effect on the plate. `C#CCOc1cc(C(=NO)c2ccccc2OC)nc(-c2ccccn2)c1` [NPS2, N-[(4-propargyloxy-[2,2’-bipyridin]-6-yl)(2-methoxyphenyl)methylidene] hydroxylamine]: the zone of inhibition at 50 µg/mL came out at 13 ± 1.73 mm in [3]; 17 mm in data set [5]; 8.33 ± 1.15 mm in [6]; 14 mm in [7]; 9 mm in data set [8]; 9.67 ± 0.58 mm in [9]. The molecule also registered a zone of inhibition at 50 µg/mL in [10] of 8.33 ± 1.53 mm. The MIC is 25 µg/mL (≈ 69.6 µM) in data set [4]; more than 100 µg/mL in data set [11]; more than 100 µg/mL in data set [12]; 50 µg/mL (≈ 139 µM) in data set [13]; more than 100 µg/mL in data set [14]; 50 µg/mL (≈ 139 µM) in data set [15].

For the molecule `CCC(=NO)c1cc(OC)cc(-c2cc(OC)ccn2)n1` [NPS5, N-[1-(4,4’-dimethoxy[2,2’-bipyridin]-6-yl)propyldiene]hydroxylamine], the Zone of inhibition in data set [3] (V. cholerae (MTCC 3906), 50 µg/ml, ND = Not detected) is 17.67 ± 3.21 mm; in data set [5] (M. luteus (MTCC 106), 50 µg/ml, ND = Not detected), 7.33 ± 2.89 mm; in data set [6] (B. subtilis (MTCC 441), 50 µg/ml, ND = Not detected), 4.00 ± 0.00 mm; in [16] it was 13.00 ± 1.00 mm; in data set [7] (S. aureus (MTCC737), 50 µg/ml, ND = Not detected), 10.00 ± 1.73 mm; in data set [8] (E. coli (MTCC739), 50 µg/ml, ND = Not detected), 9.00 ± 1.00 mm. For the same molecule, the Zone of inhibition in [9] is 14 mm and 14.33 ± 0.58 mm; in data set [10] (P. aeruginosa (MTCC1934), 50 µg/ml, ND = Not detected), 18.00 ± 1.00 mm. The Minimum inhibitory concentration in data set [4] (V. cholerae (MTCC 3906), 18 h) was 50 µg/mL (≈ 174 µM); in data set [11] (E. coli (MTCC739), 18 h), more than 100 µg/mL; in data set [12] (P. aeruginosa (MTCC1934), 18 h) it was more than 100 µg/mL; in [13] (S. aureus (MTCC737), 18 h), 50 µg/mL (≈ 174 µM); in [14] (K. pneumoniae (MTCC 618), 18 h) it was more than 100 µg/mL; in data set [15] (MRSA 831), 50 µg/mL (≈ 174 µM).

Take `CC1(C)S[C@@H]2[C@H](NC(=O)[C@H](N)c3ccccc3)C(=O)N2[C@H]1C(=O)O` [Ampicillin, reference compound]: the MIC was 25 µg/mL (≈ 71.5 µM) in data set [4], 6.25 µg/mL (≈ 17.9 µM) in data set [11], 25 µg/mL (≈ 71.5 µM) in data set [12] and more than 100 µg/mL in data set [14]. The zone of inhibition at 50 µg/mL in data set [5] worked out at 21 mm; in [6], 19.3 ± 0.58 mm; in data set [8] it was 4 mm.

One may read the IC50 as the concentration that inhibits the measured activity by half. With `COc1ccnc(-c2cc(OC)cc(C(=NO)c3ccccc3OC)n2)c1` [NPS3, N-[(4,4’-dimethoxyl[2,2’-bipyridin]-6-yl)(2-methoxyphenyl)methylidene] hydroxylamine], in data set [17] (3T3-L1 fibroblast cells, 3T3L-1 cells, 24 h, read-out: IC50 (cytotoxicity, MTT)), the IC50 at 24 h is 253 µg/mL. For the same molecule, the IC50 at 48 h in data set [17] (3T3-L1 fibroblast cells, 3T3L-1 cells, 48 h, read-out: IC50 (cytotoxicity, MTT)) is 274 µg/mL. Also, the zone of inhibition at 50 µg/mL was 12.3 ± 2.52 mm in [3]; 14.7 ± 1.15 mm in [5]; 4.67 ± 1.15 mm in data set [6]; 13.7 ± 1.15 mm in [7]; 9.67 ± 0.58 mm in data set [9]; 11.3 ± 1.15 mm in data set [10]. Besides, the MIC in data set [4] is 25 µg/mL (≈ 68.4 µM); in data set [11] it was more than 100 µg/mL; in data set [12], more than 100 µg/mL; in data set [13], 50 µg/mL (≈ 137 µM); in data set [14], more than 100 µg/mL; in [15], 50 µg/mL (≈ 137 µM). Moreover, in [18], the “Effect on persister cell counts” value is on record as “significantly reduced”.

Turning to `COc1ccccc1C(=NO)c1cc(C)cc(-c2cc(C)ccn2)n1` [NPS4, N-[(4,4’-dimethyl[2,2’-bipyridin]-6-yl)(2-methoxyphenyl)methylidene] hydroxylamine], the IC50 at 24 h in data set [17] turned out to be 279 µg/mL. Further, the IC50 at 48 h in data set [17] worked out at 240 µg/mL. Besides, the zone of inhibition at 50 µg/mL in [3] stood at 17.7 ± 3.21 mm; in [5], 19.3 ± 0.58 mm; in data set [6] it was 10 ± 1 mm; in [7], 19 mm; in [8], 9 ± 1 mm; in data set [9], 14 mm. Further, in data set [10], the zone of inhibition at 50 µg/mL came to 18 ± 1 mm. In addition, the MIC in [4] was 12.5 µg/mL (≈ 37.5 µM); in data set [11], more than 100 µg/mL; in data set [12], more than 100 µg/mL; in [13] it was 50 µg/mL (≈ 150 µM); in [14], more than 100 µg/mL; in [15], 50 µg/mL (≈ 150 µM). The “Effect on persister cell counts” value in data set [18] was “significantly reduced”. This molecule registered a Zone of inhibition in data set [9] of 14.33 ± 0.58 mm. The “Cell morphology (TEM)” value in data set [19] and in data set [20] was “Significant morphological alterations” in each case. In addition, the “Biofilm formation inhibition (in words)” value in data set [21] is listed as “highly effective”. In data set [22], the “Biofilm disruption (CLSM)” value is “significant disruption and damage”.
